The values below come from ChEMBL document CHEMBL1828561, “Identification of a potent and selective free fatty acid receptor 1 (FFA1/GPR40) agonist with favorable physicochemical and in vitro ADME properties” (J Med Chem, 2011).

Structures are written as SMILES.

Assay [1] relates to 1321-N1. Briefly: Selectivity for human FFA1 receptor expressed in human 1321N1 cells over Cl- channel. Format: cell-based.
In assay [2] the test system is 1321-N1. Put plainly: Selectivity for human FFA1 receptor expressed in human 1321N1 cells over B2 receptor. The format is cell-based.

Take `O=C(O)CCc1ccc(C#Cc2cc(Cl)nc(Cl)c2)cc1`: the Selectivity ratio in the assay with 1321-N1 [1] and in the assay with 1321-N1 [2] was above 100 in each case.
